Experimental findings from patent US20030124023A1, “Method of sterilizing heart valves” (priority 2001, published 2003) are described below.

Where only a bound is given, the exact number is not on record here.

Data set [1] is described as follows: physchem. As for the experimental part: A. Preparation of Stabilizer Solutions:
The 0.5 M solution was not soluble; therefore an additional 2 ml of PPG was added.
An additional 1 ml PPG was added and further water bath sonicated.
The 0.5M solution was soluble after a 20-30 minute water bath sonication.
Very soluble after 10 minute water bath sonication.

Data set [2] in a line: Solubility of coumaric acid in DMSO/water (50% DMSO). It is filed as physicochemical. How it is done: All stabilizers were prepared so that the final concentration of DMSO was 50%. Dissolve 34.7 mg in 106 μl DMSO, pH ≈3.0 138 μl H2O was added.
In data set [3] the test system is porcine heart valve cusps. Briefly: Example 2: quantification of collagen crosslinks (pyd) by HPLC after gamma irradiation. As for the experimental part:
In this experiment, the effects of gamma irradiation were determined on porcine heart valve cusps in the presence of 50% DMSO and, optionally, a stabilizer, and in the presence of polypropylene glycol 400 (PPG400). 1.6 ml of a solution (stabilizer mixture or PPG400) was added to each sample and then the sample was incubated at 4° C. for 2.5 days. Valves and 1 ml of the solution in which they were incubated were then transferred into 2 ml irradiation vials. Each sample was irradiated with gamma irradiation at a rate of 1.723 kGy/hr at 3.6° C. to a total dose of 25 kGy. 3. Weighed the samples, transferred them to hydrolysis vials and then added 6 N HCl at a volume of 20 mg tissue/ml HCl: 5. Samples were hydrolyzed at 110° C. for approximately 23 hours. 13. Eluted crosslinks with 5 ml 2 N HCl into a low binding tube. 50 ml 2 N HCl:8.6 ml concentrated HCl adjusted to a volume of 50 ml with Nerl H2O. 1. Prepared 100-200 μl 1× solution in 1% heptafluorobutyric acid (HFBA). 2. Injected 50 μl on C18 HPLC column equilibrated with mobile phase. 3. Spectrofluorometer was set for excitation at 295 nm and emission at 395 nm. 4. Calculated the integrated fluorescence of Internal-Pyridinoline (Int-Pyd) per 1 μl of 1× solution of Int-Pyd.

Data set [4] relates to porcine AV heart valve cusps. Description: Example 3: HPLC analysis of frozen gamma irradiated AV heart valve cusps. The conditions noted are these: 30 kGy, 1.584 kGy/hr, −20° C. As for the experimental part:
In this experiment, frozen porcine AV heart valves soaked in various solvents were gamma irradiated to a total dose of 30 kGy at 1.584 kGy/hr at −20° C. 5. Added 1.0 ml of the following to two of each of two tubes: dPBS, 50% DMSO and 50% DMSO with 200 mM sodium ascorbate (2M sodium ascorbate stock was diluted as follows: 400 μl (2M)+1.6 ml water+2ml 100% DMSO). 6. Incubated tubes at 4° C. with nutating for ˜46 hours. 8. All vials were frozen on dry ice. 9. Frozen samples were then irradiated at −20° C. at a rate of 1.584 kGy/hr to a total dose of 30 kGy.

Turning to `O=C(O)/C=C/c1ccc(O)cc1` [Coumaric Acid], in data set [1], the “solubility of stabilizer stock in PPG” value is “not 100% soluble”. The “solubility in DMSO after addition of H2O” value in data set [2] (34.7 mg in 106 μl DMSO, pH ≈3.0, 138 μl H2O added) was “precipitated out of solution”. The “solubility in DMSO/H2O after pH adjustment” value in data set [2] (pH adjusted to 7.5 with 1 N NaOH) is given as “went back into solution”.
Regarding `C[S+](C)[O-]` [DMSO, dimethylsulfoxide], the “Area of Pyd Peak” value in data set [3] (0 kGy (not irradiated)) was 87880; in data set [3] (25 kGy, 1.723 kGy/hr, 3.6° C.) it was 49030. The “HPLC profile, irradiated versus not irradiated” value in data set [3] (25 kGy, 1.723 kGy/hr, 3.6° C., DMSO at 50%) was “less effective”; in data set [4] (20% DMSO), “reproduced these peaks more faithfully”; in data set [4] (50% DMSO) it was “slightly more effective”.
With `Cc1c(C)c2c(c(C)c1O)CCC(C)(C(=O)O)O2` (centres unmarked) [Trolox C, 6-hydroxy-2,5,7,8-tetramethylchroma-2 carboxylic acid], the “solubility of stabilizer stock in PPG” value in data set [1] is on record as “not soluble”. In addition, in data set [1] (25 °C, organic solvent or mixture, thermodynamic from solid), the solubility was at least 125 mM.
Regarding `CCCOC(=O)c1cc(O)c(O)c(O)c1` [n-Propyl Gallate], the “solubility of stabilizer stock in PPG” value in data set [1] is recorded as “soluble”.
